Experiments:
human mGlu2 = target: T1, human mGlu2 (Homo sapiens, UniProt Q14416); assay: [3H]-compound A displacement binding, human mGlu2 HEK293 membranes; details: Glu2 HEK293, 6 nM [3H]-compound A
T1 construct: expressed in transfected cells; host or cells: HEK293
Method: (§1) For [^3H]-compound A (a NAM compound, selective for mGlu2/3 (˜20 fold selective for 2 over 3) vs other mGluRs) binding, membranes from human mGlu2 and mGlu3 HEK293 cells, and also rat cortical membranes, were used. After thawing, membranes were homogenized using an Ultra Turrax homogenizer and suspended in ice-cold binding buffer containing 50 mM Tris-HCl (pH 7.4), 10 mM MgCl2, 2 mM CaCl2. Displacement studies were done using 6 nM of radioligand, except for human mGlu3 membranes where 25 nM was used. Assay mixtures were incubated for 60 min at RT in a volume of 0.5 ml containing […] or 75 μg membrane protein of human mGlu2, human mGlu3 or rat cortex, respectively. Non-specific binding was estimated in the presence of […] compound B (a NAM with IC50˜10 nM against hmGlu2 and IC50˜200 nM against hmGlu3). Filtration was performed using Whatman GF/C filter sheets pre-soaked in 0.1% PEI and a Brandell harvester 96.
(§2) Filters from filters sheets were punched into vials. After the addition of scintillation liquid, radioactivity on the filters was counted in a Liquid Scintillation Analyzer from Perkin Elmer.
(§3) Radioligand competition binding data were calculated as percentage of total binding measured in the absence of test compound. Inhibition curves, plotting percentage of total binding versus the log concentration of the test compound, were generated using the Lexis software. Sigmoid inhibition curves were analyzed using non-linear regression analysis.

human mGlu3 = target: T2, human mGlu3 (Homo sapiens, UniProt Q14832); assay: [3H]-compound A displacement binding, human mGlu3 HEK293 membranes; details: Glu3 HEK293, 25 nM [3H]-compound A
T2 construct: expressed in transfected cells; host or cells: HEK293
T2 sequence (Q14832 23-879): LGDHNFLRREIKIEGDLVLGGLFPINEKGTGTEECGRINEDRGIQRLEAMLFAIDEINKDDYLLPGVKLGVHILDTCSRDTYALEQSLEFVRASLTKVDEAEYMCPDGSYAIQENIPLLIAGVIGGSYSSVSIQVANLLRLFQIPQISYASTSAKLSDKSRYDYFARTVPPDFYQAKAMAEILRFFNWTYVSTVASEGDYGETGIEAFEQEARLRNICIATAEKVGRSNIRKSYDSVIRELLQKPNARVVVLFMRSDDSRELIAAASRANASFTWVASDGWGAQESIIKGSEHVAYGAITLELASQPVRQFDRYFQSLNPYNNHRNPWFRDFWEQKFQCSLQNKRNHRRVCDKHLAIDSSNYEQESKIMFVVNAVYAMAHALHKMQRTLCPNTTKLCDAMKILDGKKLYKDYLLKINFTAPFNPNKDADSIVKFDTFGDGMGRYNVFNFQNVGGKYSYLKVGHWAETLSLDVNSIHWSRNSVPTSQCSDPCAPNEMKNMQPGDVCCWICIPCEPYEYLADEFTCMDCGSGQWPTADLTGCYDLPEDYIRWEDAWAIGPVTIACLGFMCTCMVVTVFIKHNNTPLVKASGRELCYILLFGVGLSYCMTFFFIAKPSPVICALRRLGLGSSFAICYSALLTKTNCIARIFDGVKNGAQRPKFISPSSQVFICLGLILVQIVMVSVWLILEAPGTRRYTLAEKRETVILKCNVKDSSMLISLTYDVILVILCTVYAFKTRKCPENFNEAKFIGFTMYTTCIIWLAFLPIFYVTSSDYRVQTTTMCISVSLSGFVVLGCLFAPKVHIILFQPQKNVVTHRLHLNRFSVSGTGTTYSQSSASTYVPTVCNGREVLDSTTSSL
Method: as §1, §2, §3

Glu2-3 rat cortex = assay: [3H]-compound A displacement binding, rat cortical membranes; details: 6 nM [3H]-compound A
Method: as §1, §2
Radioligand competition binding data were calculated as percentage of total binding measured in the absence of test compound. […] Sigmoid inhibition curves were analyzed using non-linear regression analysis.

T1 sequence (Q14416 19-872): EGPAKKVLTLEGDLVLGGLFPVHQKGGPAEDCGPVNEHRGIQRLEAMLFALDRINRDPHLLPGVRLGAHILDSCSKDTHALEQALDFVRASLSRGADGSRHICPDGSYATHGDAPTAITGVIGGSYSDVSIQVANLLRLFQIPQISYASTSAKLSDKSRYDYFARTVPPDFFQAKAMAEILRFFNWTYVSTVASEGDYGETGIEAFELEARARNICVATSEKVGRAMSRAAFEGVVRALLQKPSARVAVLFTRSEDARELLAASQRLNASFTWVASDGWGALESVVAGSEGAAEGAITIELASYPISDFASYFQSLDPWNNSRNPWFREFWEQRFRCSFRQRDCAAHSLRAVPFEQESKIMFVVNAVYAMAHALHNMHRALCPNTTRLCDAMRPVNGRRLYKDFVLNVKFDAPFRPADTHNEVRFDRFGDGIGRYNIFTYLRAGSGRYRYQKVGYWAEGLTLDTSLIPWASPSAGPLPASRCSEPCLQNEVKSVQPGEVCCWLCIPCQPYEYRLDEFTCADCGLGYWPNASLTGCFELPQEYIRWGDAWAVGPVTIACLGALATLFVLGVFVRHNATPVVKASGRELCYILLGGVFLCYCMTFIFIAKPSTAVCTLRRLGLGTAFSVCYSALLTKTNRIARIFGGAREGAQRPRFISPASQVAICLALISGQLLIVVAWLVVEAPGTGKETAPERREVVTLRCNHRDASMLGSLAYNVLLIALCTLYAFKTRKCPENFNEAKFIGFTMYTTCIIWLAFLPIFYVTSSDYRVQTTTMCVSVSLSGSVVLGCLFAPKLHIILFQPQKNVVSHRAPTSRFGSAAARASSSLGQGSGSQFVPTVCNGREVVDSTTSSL

In the case of `C[C@H]1CN(c2ccc(C(F)(F)F)cc2)C(=O)c2c(C#Cc3cnc(N)cc3C[18F])cnn21` [Compound 1], the “Eff Curve” value (human mGlu2) is reported as 93, the IC50 (human mGlu2) is reported as 2.75 nM and the “Eff Curve” value (human mGlu3) is reported as 104. The IC50 (human mGlu3) was 7.24 nM, the “Eff Curve” value (Glu2-3 rat cortex) was 95 and the pIC50 (Glu2-3 rat cortex) was 8.78.

Reference: patent US11033641B2, “Radiolabelled mGluR2/3 pet ligands” (Janssen Pharmaceutica NV, priority 2015, dated 2021)
